The values below come from patent US20210228545A1, “METHODS OF TREATING CONDITIONS RELATED TO THE S1P1 RECEPTOR” (Arena Pharmaceuticals, Inc., priority 2018, published 2021).

The target of one data set is T1, UGT1A6 (Homo sapiens, UniProt P19224).
T1 construct: human liver microsomes from a pool of 200 individuals; from tissue; host or cells: human liver microsomes, pool of 200 individuals
The experiment in a line: Direct inhibition of UGT activity in human liver microsomes. The format is in vitro ADME. Particulars: highest concentration tested (10 μM). An excerpt: (§1) Known metabolism-dependent and/or direct inhibitors of CYP and UGT enzymes were included as positive controls, as applicable.
On the technique in general: Liver microsomes are vesicles of endoplasmic reticulum, rich in cytochrome P450 enzymes.

The next data set concerns the target T2, UGT1A1 (Homo sapiens, UniProt P22309).
T2 construct: human liver microsomes from a pool of 200 individuals; from tissue; host or cells: human liver microsomes, pool of 200 individuals
Described as above. Particulars: highest concentration tested (10 μM). The format is in vitro ADME.
Description: as §1

A further data set has as its system CYP1A2 mRNA. As to the kind of experiment: CYP induction in cultured human hepatocytes. It counts as in vitro ADME. Particulars: up to 10 μM.
For the next data set, the target named is rCYP2C8 (Homo sapiens, UniProt P10632). The experiment in a line: Compound 1 loss on incubation with rCYP enzymes. The settings on record: 120 minutes of incubation. The format is in vitro ADME.
The target in a further data set is T3, MATE2-K (Homo sapiens, UniProt Q86VL8).
T3 construct: expressed in transfected cells; host or cells: HEK293
As to the kind of experiment: Transporter inhibition, HEK293 cells. It counts as in vitro ADME.

The next data set deals with T4, OCT2 (Homo sapiens, UniProt O15244).
T4 construct: expressed in transfected cells; host or cells: HEK293
T4 sequence (O15244 1-555): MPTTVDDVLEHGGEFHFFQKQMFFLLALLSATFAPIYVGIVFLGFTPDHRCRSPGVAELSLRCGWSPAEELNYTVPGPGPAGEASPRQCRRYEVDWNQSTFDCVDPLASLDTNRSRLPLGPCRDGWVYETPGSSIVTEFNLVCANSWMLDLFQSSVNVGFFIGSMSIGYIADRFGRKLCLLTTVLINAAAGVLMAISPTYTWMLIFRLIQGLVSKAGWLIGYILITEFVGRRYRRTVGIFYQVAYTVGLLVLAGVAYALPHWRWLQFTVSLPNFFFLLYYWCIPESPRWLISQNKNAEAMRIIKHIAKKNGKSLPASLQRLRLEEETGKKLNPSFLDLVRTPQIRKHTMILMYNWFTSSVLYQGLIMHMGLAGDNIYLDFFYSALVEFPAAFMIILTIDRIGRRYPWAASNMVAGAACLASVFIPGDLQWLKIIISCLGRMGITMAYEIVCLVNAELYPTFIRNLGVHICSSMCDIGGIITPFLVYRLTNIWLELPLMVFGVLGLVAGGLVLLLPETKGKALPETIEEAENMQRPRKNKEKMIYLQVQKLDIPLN
As to the kind of experiment: Transporter inhibition, HEK293 cells. The format is in vitro ADME. The settings on record: [14C]-metformin (10 μM), 1 and 10 μM tested.

The target in the next data set is T5, OATP1B1 (Homo sapiens, UniProt Q9Y6L6).
T5 sequence (Q9Y6L6 1-691): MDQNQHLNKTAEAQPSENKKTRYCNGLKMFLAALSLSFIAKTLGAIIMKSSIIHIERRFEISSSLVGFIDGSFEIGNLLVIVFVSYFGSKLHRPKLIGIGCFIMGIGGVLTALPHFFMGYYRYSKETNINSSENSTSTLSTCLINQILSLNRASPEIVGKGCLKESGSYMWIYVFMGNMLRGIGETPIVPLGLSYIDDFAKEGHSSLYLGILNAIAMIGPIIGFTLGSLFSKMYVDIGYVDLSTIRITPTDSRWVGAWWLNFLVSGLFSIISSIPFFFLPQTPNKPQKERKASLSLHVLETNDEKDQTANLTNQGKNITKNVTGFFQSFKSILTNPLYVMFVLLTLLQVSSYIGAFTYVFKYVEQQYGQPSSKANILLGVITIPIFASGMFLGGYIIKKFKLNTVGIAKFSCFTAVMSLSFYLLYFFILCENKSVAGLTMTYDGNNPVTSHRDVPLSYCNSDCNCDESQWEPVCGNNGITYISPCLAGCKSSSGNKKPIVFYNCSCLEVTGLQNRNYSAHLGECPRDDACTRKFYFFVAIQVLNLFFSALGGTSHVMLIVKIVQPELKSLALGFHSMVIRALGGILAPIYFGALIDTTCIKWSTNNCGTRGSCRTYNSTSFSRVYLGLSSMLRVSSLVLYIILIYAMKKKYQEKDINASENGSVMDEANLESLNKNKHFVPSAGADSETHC
As to the kind of experiment: Transporter inhibition, HEK293 cells.

The target in another data set is T6, OAT3 (Homo sapiens, UniProt Q8TCC7).
T6 construct: expressed in transfected cells; host or cells: HEK293
T6 sequence (Q8TCC7 1-542): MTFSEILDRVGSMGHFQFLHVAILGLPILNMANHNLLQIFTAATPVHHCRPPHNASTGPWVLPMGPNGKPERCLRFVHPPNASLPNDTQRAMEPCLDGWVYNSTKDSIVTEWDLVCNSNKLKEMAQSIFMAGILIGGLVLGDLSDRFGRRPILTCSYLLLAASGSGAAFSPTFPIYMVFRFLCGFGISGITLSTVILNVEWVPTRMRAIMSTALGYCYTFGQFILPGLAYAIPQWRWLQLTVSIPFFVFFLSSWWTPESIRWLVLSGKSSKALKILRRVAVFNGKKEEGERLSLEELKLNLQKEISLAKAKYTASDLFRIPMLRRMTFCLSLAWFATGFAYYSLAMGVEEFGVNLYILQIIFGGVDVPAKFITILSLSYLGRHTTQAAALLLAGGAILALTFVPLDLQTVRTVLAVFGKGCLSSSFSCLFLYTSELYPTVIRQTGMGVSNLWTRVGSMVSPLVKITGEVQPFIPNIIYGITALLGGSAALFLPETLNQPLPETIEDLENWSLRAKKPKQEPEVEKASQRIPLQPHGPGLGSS
As to the kind of experiment: Transporter inhibition, HEK293 cells. It counts as in vitro ADME.

“Also recorded” adds a separate entry of the source.

T3 sequence (Q86VL8 1-566 isoform Q86VL8-3): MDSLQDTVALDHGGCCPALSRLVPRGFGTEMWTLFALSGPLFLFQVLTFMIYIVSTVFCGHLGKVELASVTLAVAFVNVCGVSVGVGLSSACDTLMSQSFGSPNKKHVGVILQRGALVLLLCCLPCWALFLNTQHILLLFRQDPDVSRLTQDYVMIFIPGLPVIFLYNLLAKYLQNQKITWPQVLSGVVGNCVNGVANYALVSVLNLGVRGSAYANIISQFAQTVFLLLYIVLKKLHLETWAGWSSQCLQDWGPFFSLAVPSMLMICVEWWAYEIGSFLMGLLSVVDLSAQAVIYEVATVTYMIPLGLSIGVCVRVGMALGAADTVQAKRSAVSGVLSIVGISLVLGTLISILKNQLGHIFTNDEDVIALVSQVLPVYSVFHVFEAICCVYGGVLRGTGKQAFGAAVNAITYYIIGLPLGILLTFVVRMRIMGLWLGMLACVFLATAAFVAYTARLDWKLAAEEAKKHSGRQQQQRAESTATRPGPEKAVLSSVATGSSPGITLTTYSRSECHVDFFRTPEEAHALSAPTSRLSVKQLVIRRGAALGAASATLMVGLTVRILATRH
rCYP2C8, sequence (P10632 whole entry): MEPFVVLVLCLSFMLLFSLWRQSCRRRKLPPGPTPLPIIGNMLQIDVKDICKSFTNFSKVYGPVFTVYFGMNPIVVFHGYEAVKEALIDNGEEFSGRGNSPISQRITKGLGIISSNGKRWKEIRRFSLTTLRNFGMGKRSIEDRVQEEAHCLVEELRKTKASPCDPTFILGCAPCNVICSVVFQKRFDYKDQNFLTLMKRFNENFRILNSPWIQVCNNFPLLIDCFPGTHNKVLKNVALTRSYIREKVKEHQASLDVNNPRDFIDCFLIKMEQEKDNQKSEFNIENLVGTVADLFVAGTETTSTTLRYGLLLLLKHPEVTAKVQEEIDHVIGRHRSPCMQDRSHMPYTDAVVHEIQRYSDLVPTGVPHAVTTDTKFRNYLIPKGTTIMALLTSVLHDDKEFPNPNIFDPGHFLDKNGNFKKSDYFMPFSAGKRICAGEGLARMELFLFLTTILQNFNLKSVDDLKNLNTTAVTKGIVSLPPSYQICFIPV
T1 sequence (P19224 27-532): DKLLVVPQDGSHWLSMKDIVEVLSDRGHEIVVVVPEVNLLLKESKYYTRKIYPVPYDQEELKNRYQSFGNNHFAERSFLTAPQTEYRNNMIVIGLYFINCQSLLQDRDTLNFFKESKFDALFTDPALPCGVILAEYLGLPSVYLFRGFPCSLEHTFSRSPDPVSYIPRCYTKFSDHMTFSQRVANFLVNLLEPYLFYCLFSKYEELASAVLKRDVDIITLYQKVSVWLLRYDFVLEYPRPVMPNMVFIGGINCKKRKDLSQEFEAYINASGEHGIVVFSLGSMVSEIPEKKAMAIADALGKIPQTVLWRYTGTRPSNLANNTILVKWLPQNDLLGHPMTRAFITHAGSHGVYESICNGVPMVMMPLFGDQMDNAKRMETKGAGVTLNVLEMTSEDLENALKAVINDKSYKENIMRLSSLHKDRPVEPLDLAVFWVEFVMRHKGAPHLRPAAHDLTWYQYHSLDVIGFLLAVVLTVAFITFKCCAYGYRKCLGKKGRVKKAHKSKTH
T2 sequence (P22309 26-533): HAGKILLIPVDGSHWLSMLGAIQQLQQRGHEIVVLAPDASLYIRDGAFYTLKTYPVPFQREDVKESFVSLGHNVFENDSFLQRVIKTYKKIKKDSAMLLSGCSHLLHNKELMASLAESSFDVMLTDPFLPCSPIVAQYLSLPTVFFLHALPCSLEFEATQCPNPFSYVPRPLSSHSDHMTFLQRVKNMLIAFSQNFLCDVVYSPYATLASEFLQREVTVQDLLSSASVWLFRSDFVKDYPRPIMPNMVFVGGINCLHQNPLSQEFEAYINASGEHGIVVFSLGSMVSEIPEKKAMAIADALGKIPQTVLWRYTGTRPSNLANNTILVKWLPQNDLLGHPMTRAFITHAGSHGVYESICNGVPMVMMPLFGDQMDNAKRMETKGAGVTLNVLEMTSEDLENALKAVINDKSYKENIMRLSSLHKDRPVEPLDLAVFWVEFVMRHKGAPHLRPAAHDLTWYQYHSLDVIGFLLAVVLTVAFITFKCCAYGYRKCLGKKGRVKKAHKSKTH

Usually inhibition stands for how much of the control response was suppressed. For orientation: IC50 means the midpoint of a concentration-inhibition curve. Read a high IC50 as weaker potency in that assay. `O=C(O)C[C@H]1CCc2c1[nH]c1ccc(OCc3ccc(C4CCCC4)c(C(F)(F)F)c3)cc21` [Compound 1, (R)-2-(7-(4-cyclopentyl-3-(trifluoromethyl)benzyloxy)-1,2,3,4-tetrahydrocyclopenta[b]indol-3-yl)acetic acid]: the results for the inhibition at 10 µM against UGT1A6 and against UGT1A1 were not above 48% and not above 28%, respectively. Besides, the “Induction potential on CYP1A2 mRNA” value with CYP1A2 mRNA is given as “no induction potential; also recorded: not a potential inducer”. In addition, the “Compound 1 loss with rCYP2C8” value at rCYP2C8 is “up to 75%”. Also, the IC50 is more than 10 µM at MATE2-K (HEK293 cells, [14C]-metformin (10 μM), 1 and 10 μM tested); more than 10 µM against OCT2; more than 10 µM at OAT3 (HEK293 cells, [3H]-estrone-3-sulfate (50 nM), 1 and 10 μM tested). Further, at MATE2-K (up to 10 μM), the “Inhibition of MATE2-K” value is listed as “less than 50%”. In addition, the OATP1B1 inhibition entry at OATP1B1 (1 μM Compound 1) is reported as “no OATP1B1 inhibition”. In addition, at OATP1B1 (10 μM Compound 1), the “Reduction of uptake rate of [3H]-estradiol-17β-glucuronide (50 nM) into OATP1B1-expressing cells” value is on record as approximately 50%. For the same compound, on OAT3 (1 and 10 μM), the “Reduction of uptake rate of estrone-3-sulfate into OAT3-expressing cells (inhibition)” value is listed as “less than 50%”.
